Consider 1 molecule from US10617677B2, “Nuclear transport modulators and uses thereof” (Biogen MA Inc., priority 2012, dated 2020).

Entries after “also recorded” stand apart in the source; their conditions may differ.

The test system of assay [1] is BCCI injury to the medial frontal cortex. Nature of the assay: Bilateral controlled cortical impact (BCCI) injury in rats. The class given is in vivo. The procedure: Bilateral controlled cortical impact (BCCI) injury to the medial frontal cortex (MFC) of male Sprague Dawley rats was induced by a cortical contusion device. After CCI any cortical surface hemorrhaging was controlled, and the fascia and scalp were sutured. Sham-operated rats were anesthetized, mounted in the stereotaxic apparatus, and a craniotomy was performed.
Progesterone 16 mg/mL was dissolved in 22.5% 2-hydroxypropyl-β-cyclodextrin and the initial injection (16 mg/kg) was given i.p. 1 h after injury. The remaining injections (all 16 mg/kg) were given subcutaneously at 6 h post-injury and continued for 5 days after injury. Progesterone injections were made at a concentration of 1 mL/kg. Progesterone was used as a control.
Compound 1 0.2, 0.4, and 0.6 mg/mL was suspended in vehicle (0.6% w/v Pluronic® F-68 and 0.6% w/v PVP K-29/32 in water) and administered p.o at a concentration of 10 mL/kg, 16 h before injury and 2 h after injury, and administrations were continued for 4 days. Control rats received equivalent injections of the vehicle for Compound 1, at the same time points.
The Morris Water Maze (MWM) test is a spatial navigation task that measures learning and memory in rodents using visual cues. Subjects learn over the course of days to find a hidden platform. A MWM test was conducted two weeks after injury. Male Sprague Dawley rats were allowed to swim in the pool until they reached the platform located in the southwest quadrant of a tank, or until 90 seconds had elapsed. Behavior was tracked by a video camera hanging from above the pool and recorded and analyzed using video track software (ANY-maze).
The expression level of several cytokines in plasma harvested from rats in each treatment group was measured. The samples were received frozen and stored at −80° C. On the day of the experiment, the samples were thawed, diluted four-fold, and analyzed for cytokine expression on a Luminex platform. The samples were analyzed for the cytokines GRO/KC, IFNy, IL-1B, IL-6, IL-10, IL-12p70 and TNFa, using a multipliex kit manufactured by Millipore. […] The biggest change was in IL-10.
Quantitative measures of cell density were collected from anti-NeuN immunolabeled subsections from approximately 2-3 mm anterior to bregma. Regions of interest (ROIs) were drawn (blind to experimental condition) around Layers IV-VI in the cortical region adjacent to the injury site in CCI-treated animals or in the equivalent zone (dorsal cortex) in sham animals. An ROI of similar area was also evaluated in a ventral cortical region of the same section. Cell identification was performed using the cell counting module of Keyence BZ-II Analyzer software. Cell-to-gray matter (CG) area coefficients were determined for each ROI. […] The CCI-induced reduction in CG coefficient was mitigated by treatment with Compound 1 in the ventral cortex (−3% compared to sham; p=0.09). Although the effect of Compound 1 versus vehicle treatment in the ventral cortex is not statistically significant, it is anticipated that this effect would breach statistical significance in a larger study. No effect of Compound 1 was detected in the dorsal cortical region (−32% compared to sham) immediately adjacent to the injury site. The difference in the observed effect of Compound 1 on the ventral region versus the dorsal region may be a threshold effect related to the degree of injury, which was inversely related to the distance from the injury site. Thus, the damage to the dorsal cortical region could be too severe to be rescued by Compound 1 under these conditions.
Immunofluorescence was performed to evaluate the impact of TBI on several pathways of immune response, and to determine if Compound 1 might be mediating its neuroprotective effects via one or more of those pathways. […]

In assay [2] the test system is MOG-induced EAE. Nature of the assay: MOG-induced experimental autoimmune encephalomyelitis (EAE) murine model. The class given is in vivo, mice. As to conditions: 7.5 mg/kg p.o. starting on study day 11, Monday, Wednesday and Friday. The procedure: The EAE Model is an accepted model for the study of human CNS demyelinating diseases such as multiple sclerosis. The effects of Compound 1 were investigated in MOG-induced in an EAE murine model in female C57B1/6J mice. […] Compound 1 at 7.5 mg/kg was administered orally starting from day 11 (disease onset) on Monday, Wednesday and Friday for 3 consecutive weeks. The disease was induced by the single intradermal injection of MOG emulsified in Complete Freund's Adjuvant (CFA) on study day 0, followed by intraperitoneal supplemental immunostimulation with pertussis toxin (PT) carried out on study day 0, and again 48 hours later on study day 2.

With `CC(C)(C)C(=O)NNC(=O)/C=C\n1cnc(-c2cc(C(F)(F)F)cc(C(F)(F)F)c2)n1` [Compound 1, (Z)-3-(3-(3,5-bis(trifluoromethyl)phenyl)-1H-1,2,4-triazol-1-yl)-N′-pivaloylacrylohydrazide], in assay [1] (6 mg/kg), the “plasma IL-10” value is on record as “reduced IL-10 compared to vehicle-treated control group” and the “qualitative visual inspection of whole brains (damage to dorsal-medial cortical tissue)” value is recorded as “damage ranging from moderate to minimal”. For the same molecule, the “latency to find the hidden platform (MWM test), significance” value in assay [1] (6 mg/kg p.o.) is “significant effects on days 17 and 18 after injury with 6 mg/kg”. Besides, in assay [1] (2, 4 and 6 mg/kg p.o.), the “latency to find the hidden platform (MWM test) compared to vehicle-treated BCCI-injured rats” value is reported as “dose dependent decrease in the latency to find the hidden platform”. Further, in assay [1] (dorsal cortical region adjacent to the injury site), the “cell-to-gray matter (CG) coefficient, NeuN labeling, compared to sham” value is −32%. Moreover, in assay [1] (immunofluorescence), the “TNFα immunopositive cells in tissue surrounding the injury site” value is listed as “largely absent”; the “secondary injury responses (Rat IgG and TNFα labeling)” value is listed as “reduces secondary injury responses”. The “cell-to-gray matter (CG) coefficient, NeuN labeling, compared to sham” value in assay [1] (ventral cortex) is −3%. The “disease (clinical) score and severity” value in assay [2] was “significantly decreased disease score and severity; also recorded: decrease in disease score and severity”.
